In PMC6386767, “Characterization of recombinant fructose-1,6-bisphosphatase gene mutations: evidence of inhibition/activation of FBPase protein by gene mutation” (Bioscience Reports, 2019):
Numbering of substitutions follows the chain as printed. Blank lines part the entries; values can stand above or below the molecule they belong to.

Tests used:
[1] = target: T1, pig kidney FBPase M177A (Sus scrofa, UniProt P00636, M178A); assay: Malachite Green kinetic assay, M177A mutant; assay type: biochemical; details: for IC50: FBP substrate 10 to 50 µM
T1 construct: His6 (C); made in house; host or cells: Escherichia coli BL21 (DE3)
T1 sequence (P00636 1-338 M178A): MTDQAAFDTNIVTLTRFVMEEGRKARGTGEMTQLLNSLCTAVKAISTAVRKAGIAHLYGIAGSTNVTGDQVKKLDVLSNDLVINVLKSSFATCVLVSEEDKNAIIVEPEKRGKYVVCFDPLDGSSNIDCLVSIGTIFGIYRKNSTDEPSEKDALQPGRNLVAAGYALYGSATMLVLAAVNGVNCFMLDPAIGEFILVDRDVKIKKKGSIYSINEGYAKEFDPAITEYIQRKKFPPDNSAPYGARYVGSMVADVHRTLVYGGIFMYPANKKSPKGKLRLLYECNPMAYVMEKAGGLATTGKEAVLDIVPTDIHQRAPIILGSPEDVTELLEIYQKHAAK
Description: (§1) For the kinetic assay, a standard curve was obtained from an ammonium molybdate Malachite Green inorganic phosphate assay (OD660 nm). The purified FBPase protein was dialyzed ×3 in 50 mM Tris buffer at pH 7.5 at 4°C. For enzyme concentration, absorbency values were recorded for all five mutant proteins using spectrophotometer readings at OD280 nm. To quantitate enzyme concentration, the enzymes were calculated based on the quantity of micrograms per microliter (µg/µl) present. Final concentration of WT and mutant enzymes was between 2.5 and 5.0 µg/µl. Using a colorimetric assay as described below, specific activity (SA) was determined. At last, all kinetic and binding assays described below were performed in 50 mM Tris pH 7.5.
(§2) Kinetic assays were performed for WT and mutant enzymes to identify functional differences between the WT enzyme and the mutants. […] Readings recorded at OD660 nm for each enzyme were applied to the standard curve equation. Micromoles of inorganic phosphate were calculated to determine the SA of mutant enzymes.
(§3) For each clone, the kinetic assay was performed in duplicates of triplicates. Malachite Geen was used to detect inorganic phosphate. Two separate clones were processed independently of the same mutant. All kinetic data were fit to symmetric sigmoidal curve using Origin software based on methods previously described [[27–29]]. More specifically, for kinetic parameters established via curve fitting (shown in Tables 1–3; and in Figure 5A,B), the equation y = d + (a − d)/1 + (x/c)^b was used where ‘x’ is represented by apparent Michelis constant (Km) when y = Vmax. […] P-values were significant at <0.001 and represent a comparison with the WT enzyme.

[2] = target: T2, pig kidney FBPase Y113A (Sus scrofa, UniProt P00636, Y114A); assay: Differential scanning fluorimetry, Y113A mutant; assay type: binding; details: enzyme Y113A
T2 construct: His6 (C); made in house; host or cells: Escherichia coli BL21 (DE3)
T2 sequence (P00636 1-338 Y114A): T1 sequence (P00636 1-338 M178A) with Y114A, A178M
Description: (§4) Differential scanning fluorimetry (DSF) assays were designed and implemented to run on WT and each mutant for the purpose of determining relative stabilities by melting point, and to detect structural changes in the enzymes upon ligand binding. Thermal shift assays were performed with a Light Cycler 96 System Real-Time PCR machine (Roche) using Sypro-Orange dye (Invitrogen) and thermal ramping (0.25°C per min between 20 and 85°C). […] Data were processed using the Boltzmann equation to generate sigmoidal denaturation curves, and average Tm/ΔTm values were calculated as previously described using GraphPad Prism software package.

[3] = target: T3, pig kidney FBPase WT (Sus scrofa, UniProt P00636); assay: Differential scanning fluorimetry, WT enzyme; assay type: binding; details: enzyme WT
T3 construct: His6 (C); made in house; host or cells: Escherichia coli BL21 (DE3)
T3 sequence (P00636 1-338): T1 sequence (P00636 1-338 M178A) with A178M
Description: as §4

[4] = target: T3, pig kidney FBPase WT; assay: Malachite Green kinetic assay, WT enzyme; assay type: biochemical; details: for IC50: FBP substrate 10 to 50 µM
Description: as §1, §2, §3

[5] = target: T1, pig kidney FBPase M177A; assay: Differential scanning fluorimetry, M177A mutant; assay type: binding; details: enzyme M177A
Description: as §4

[6] = target: T4, pig kidney FBPase L73A (Sus scrofa, UniProt P00636, L74A); assay: Malachite Green kinetic assay, L73A mutant; assay type: biochemical; details: enzyme L73A; for IC50: FBP substrate 10 to 50 µM
T4 construct: His6 (C); made in house; host or cells: Escherichia coli BL21 (DE3)
T4 sequence (P00636 1-338 L74A): T1 sequence (P00636 1-338 M178A) with L74A, A178M
Description: as §1, §2, §3

[7] = association (binding) constant from saturation curve

- AMP Hill coefficient ([1]; enzyme M177A_1): 2.6 (± 0.2)
- IC50 ([1]; enzyme M177A_1): 3500 nM
- AMP Hill coefficient ([1]; enzyme M177A_2 (second clone)): 2.8 (± 0.1)
- IC50 ([1]; enzyme M177A_2): 3900 nM
- reduction in melting temperature, presence of AMP vs absence of ligand [2]: 5–9 °
- melting point of enzyme with AMP (100 µM) ([2]; AMP 100 µM): 45.0 (± 1.25) °C
- melting point of enzyme with AMP (100 µM) ([3]; AMP 100 µM): 59.0 (± 1.75) °C
- AMP Hill coefficient [4]: 2.2 (± 0.1)
- IC50 [4]: 7500 nM
- melting point of enzyme with AMP (100 µM) ([5]; AMP 100 µM): 54.1 (± 1.25) °C
- AMP Hill coefficient [6]: 2.1 (± 0.2)
- IC50 [6]: 6950 nM
Compound: Nc1ncnc2c1ncn2[C@@H]1O[C@H](COP(=O)(O)O)[C@@H](O)[C@H]1O [AMP]

- Ki ([1]; enzyme M177A): 170 nM
- IC50 ([1]; enzyme M177A_1): 750 nM
- IC50 ([1]; enzyme M177A_2): 620 nM
- Ki [4]: 250 nM
- IC50 [4]: 1500 nM
- Ki [6]: 1350 nM
- IC50 [6]: 7250 nM
Compound: O=P(O)(O)OC[C@H]1O[C@@](CO)(OP(=O)(O)O)[C@@H](O)[C@@H]1O [F2,6-BP, fructose-2,6-bisphosphate]

- Ka ([1]; enzyme M177A, association (binding) constant from saturation curve): 0.49 (± 0.18) mM
- Hill coefficient ([1]; enzyme M177A, for magnesium): 2.05 (± 0.12)
- melting point of enzyme with Mg^2+ ([…]) ([2]; Mg^2+ […]): 52.0 (± 1.50) °C
- melting point of enzyme with Mg^2+ ([…]) ([3]; Mg^2+ […]): 50.0 (± 1.25) °C
- Ka [4, 7]: 0.50 (± 0.18) mM
- Hill coefficient ([4]; for magnesium): 2.10 (± 0.15)
- melting point of enzyme with Mg^2+ ([…]) ([5]; Mg^2+ […]): 55.8 (± 1.75) °C
- Ka [6, 7]: 0.48 (± 0.17) mM
- Hill coefficient ([6]; for magnesium): 2.95 (± 0.17)
Compound: [Mg+2] [Mg^2+, magnesium]
